Laboratory results from a melting point compilation (Tetko et al.; mined from patent text by program, amines drawn as free bases though some values may be those of a salt).

First: O=C(O)c1ccc(CO[N+](=O)[O-])cc1
Second: COC(COc1ccc(C(=O)C(C)(C)O)cc1)OC
The melting point of the first is higher: 159 to 161 °C for the first, 52 to 53 °C for the second.

First: CN(C)c1ccc(C2OC(=O)c3cc(N(C)C)ccc32)c(Cl)c1 (centres undefined)
Second: Cc1ccc(Cl)c(Nc2ccccc2-c2nnco2)c1Cl
The melting point of the first is lower: 159 to 160 °C for the first, 180 to 181 °C for the second.

First: CC(O)(C(=O)Nc1ccc(C(=O)c2ccccc2)cc1F)C(F)(F)F (centres undefined)
Second: N#Cc1cccc(C(=O)Nc2cccc(C(=O)NCCC(=O)OCc3ccccc3)c2)c1
The melting point of the first is higher: 138 to 139 °C for the first, 128 to 131 °C for the second.

Compared with `CCOC(=O)CN1CCN(Cc2cnc(-c3cc4cccc(N(C)S(=O)(=O)c5cccs5)c4[nH]3)s2)CC1`, `CCCCn1c(=O)c(C(=O)OCC)c(N2CCN(C(=O)c3cccs3)CC2)c2cccnc21` is lower in melting point: 167 to 169 °C for the first, 90 to 96 °C for the second.

First: NS(=O)(=O)c1cc2c(s1)S(=O)(=O)CC(O)C2O (centres undefined)
Second: COC(=O)c1ccc2c(c1)C(CNC(=O)OC(C)(C)C)CCC2 (centres undefined)
The melting point of the first is higher: 182 to 185 °C for the first, 72 to 80 °C for the second.

First: CN1CCN(C(=S)Nc2cc3sc(C(C)(C)C)nc3cc2N2CCN(C)CC2)CC1
Second: CC(C)(C)c1nc2cc(N3CCN(c4ccccc4)CC3)c([N+](=O)[O-])cc2s1
The melting point of the first is higher: 190 to 193 °C for the first, 152 to 155 °C for the second.

Compared with `CN(C)C1(c2ccccc2)CCC(=CC(=O)NCCCCCc2c[nH]c3ccccc23)CC1` (centres undefined), `COc1ccccc1CN1CCCc2cc(OCc3ccccc3)c(OC)cc2C1` is higher in melting point: 68 to 72 °C for the first, 105 to 106 °C for the second.

Compared with `Cc1cc(C)nc(C(N)=NO)n1`, `Cc1cc(C)n(Cc2ccc(Cl)cc2Cl)c1C=O` is lower in melting point: 209 °C for the first, 88 to 89 °C for the second.

Compared with `Cc1nc(C(F)F)c(C(=O)Nc2ccccc2-c2ccc(Cl)cc2)s1`, `CCOC(=O)Cc1ncc2c(n1)-c1ccc(Cl)cc1C(c1ccccc1F)=NC2` is lower in melting point: 144 °C for the first, 98 to 103 °C for the second.

First: CCCCCCC1(CCn2ccnc2)SCCS1
Second: CCCN(CCC)CC1CCN(CCNC(=O)N2c3ccccc3C(=O)Nc3cccnc32)C1 (centres undefined)
The melting point of the first is lower: 110 to 116 °C for the first, 134 to 138 °C for the second.

Compared with `NN=CNCC(=O)NC1CCCCC1`, `O=C1NCCN1CC#CCN1CCCC1` is lower in melting point: 232 to 234 °C for the first, 71 to 75 °C for the second.

First: COc1cc2cc(-c3cccnc3)cnc2cc1OC
Second: COc1cc(F)ccc1CCN1c2nc(-c3ccncc3)cc(=O)n2CCC1(C)C
The melting point of the first is lower: 131 to 132 °C for the first, 217 to 219 °C for the second.

First: Cn1cc(-c2ncc(-c3ccc4cc(OCc5nnn[nH]5)ccc4c3)o2)c2ccccc21
Second: COc1cc(COc2nn(-c3ccccc3)cc2C=O)ccc1OCc1coc(-c2ccco2)n1
The melting point of the first is higher: 254 to 256 °C for the first, 162 to 163 °C for the second.

Compared with `CS(=O)(=O)CCCC(=O)NNC(=O)N1Cc2ccccc2Oc2ccc(Cl)cc21`, `Cc1nc2c(N)nc3ccc(OCc4ccccc4)cc3c2n1CCCCCS(C)(=O)=O` is higher in melting point: 198 to 199 °C for the first, 215 to 217 °C for the second.

Compared with `O=S(CCC=C(F)F)NCc1ccc(Cl)cc1` (centres undefined), `COc1ccc(CN(CC(=O)NO)S(=O)(=O)c2ccc(OC)cc2)cc1` is higher in melting point: 37 to 38 °C for the first, 134 to 136 °C for the second.

First: CC1CC(=O)NN=C1c1ccc(-n2ccc(CO)c2)cc1 (centres undefined)
Second: CN1CCN(c2ccc(-c3[nH]nc4c3C(=O)c3c(NC(=O)NN(C)C)cccc3-4)cc2)CC1
The melting point of the first is lower: 184 to 186 °C for the first, 192 °C for the second.

First: O=C1NC(=O)C(c2ccc(-c3ccccc3)o2)O1 (centres undefined)
Second: CC(C#N)c1ccc2oc(-c3ccccc3)nc2c1 (centres undefined)
The melting point of the first is higher: 216 to 218 °C for the first, 118 to 120 °C for the second.

First: CC(=O)OC1COc2ccc3ncccc3c2C1 (centres undefined)
Second: CC(C)(C)OC(=O)C=C1CN=C(c2ccccc2F)c2cc(Cl)ccc2N1
The melting point of the first is lower: 125 to 127 °C for the first, 158 to 160 °C for the second.

First: CC(C)C1(C)N=C(c2c(C(=O)O)ccc3ccsc23)NC1=O (centres undefined)
Second: O=C(O)c1ccc(N(Cc2cncs2)c2ccc(OC(F)F)c(OC(F)F)c2)cc1
The melting point of the first is higher: 200 to 202 °C for the first, 144 to 146 °C for the second.

First: O=C(O)COc1c(-c2cccc(Cl)c2)cc(C(=O)NCCCCCCCCn2ccc3cc(F)ccc32)cc1-c1cccc(Cl)c1
Second: O=c1c2c(Cc3cccc(C(F)(F)F)c3)n[nH]c2c2cccnc2n1-c1cccc(OC(F)(F)F)c1
The melting point of the first is lower: 141 to 144 °C for the first, 206 to 209 °C for the second.

First: CCOC1(C(Cl)(Cl)Cl)NC(=O)C(=O)N1
Second: COC(=O)CCCCCCCCCCCCC1=C(C)C(=O)C(OC)=C(OC)C1=O
The melting point of the first is higher: 189 to 201 °C for the first, 54 °C for the second.

First: C[C@H](NC(=O)OCc1ccccc1)C(=O)Nc1ccc(S(N)(=O)=O)cc1
Second: CCOC(=O)C(=O)C(C#N)c1cccc(Oc2ccccc2)c1 (centres undefined)
The melting point of the first is higher: 245 to 246 °C for the first, 105 to 109 °C for the second.

Compared with `CCCCCCCCCCCCCCOc1ccc(N(CC(=O)O)CC(=O)O)cc1OCCCCCCCCCCCCCC`, `CCc1cc(OCc2ccc3oc(-c4ccccc4C(=O)OC)nc3c2)c2c(n1)CCCC2` is higher in melting point: 89 to 93 °C for the first, 131 to 132 °C for the second.

First: COc1cc2c(Nc3ccc(Sc4nccn4C)c(Cl)c3)c(C#N)cnc2cc1N1CCN(C2CCN(C)CC2)CC1
Second: Nc1nnc(-c2cccc(F)c2F)c(N)n1
The melting point of the first is lower: 220 to 226 °C for the first, 229 to 230 °C for the second.

For `CC(=O)O[C@H]1C=C(Br)[C@H](O)[C@@H](Br)[C@@H]1O`, the melting point was 150 to 152 °C.
